Series [1] deals with primary AML patient bone marrow samples. Briefly: Primary AML patient bone marrow samples, Trypan blue exclusion assay. As to conditions: 2 μM, 72 hours. Format: cell-based, human. As to the method: (§1) AML cell lines were purchased from ATCC and maintained with IMDM (Gibco) supplemented with 10% FBS (Fisher Scientific) and 1% PSG (Gibco). Cells were plated at a density of 2-4×10^5 cells/ml, and treated with various doses of Compound A in 0.1% DMSO or 0.1% DMSO alone. Cell counts and viability were determined using the Vi-CELL XR Cell Viability Analyzer (Beckman Coulter). HL-60 and KG-1 cells overexpressing CREB or CBP were generated using lentiviral gene delivery with subsequent puromycin selection and FACs sorting for GFP. CREB knockdown was achieved by infecting cells with a lentivirus expressing the shRNA sequence 5′-[…]-3′ (SEQ ID NO:). For chemotherapy combination experiments, combination index values were calculated using median effects analysis on Calcusyn software. Human patient bone marrow samples were cultured in DMEM plus 20% FBS and 1×PSG, supplemented with recombinant GM-CSF (20 ng/ml), G-CSF (20 ng/ml), SCF (50 ng/ml), IL-3 (20 ng/ml), and IL-6 (10 ng/ml). Cells were plated at a concentration of 1×10^5 cells/ml in a 12-well plate. Vehicle (0.1% DMSO) or Compound A (2 μM) was added for up to 72 hours. All samples contained >85% AML blasts and were not sorted prior to performing experiments. […] Single cell suspensions of bone marrow culture were subsequently analyzed on a D×P10 flow cytometer (Cytek). […]

Another series concerns AML cell lines. Put plainly: Viable cell count of AML cell lines (Vi-CELL). It counts as cell-based. The note with it: four AML cell lines, 48 hours; range across lines, units printed with the values; read-out: IC50, 50% reduced viable cell count compared to DMSO-treated cells. As to the method: as §1
In another series the test system is CREB phosphorylation. Put plainly: CREB phosphorylation in HL-60 cells. It counts as cell-based, human. The source says: FIG. 12, panels A-D, illustrates the results of CyTOF Phenotyping and Compound A Combination Studies. […] Viability for Compound A treatment alone was 87.4±7.3%, versus 55.3±3.4% and 49.5±2.3% when combined with ERK and RSK inhibitors, respectively (* indicates p<0.05 compared to cells treated with Compound A alone). Panel D) Compound A inhibits CREB phosphorylation in the presence of serum. HL-60 cells were serum-starved then stimulated with serum.
Cells were lysed in RIPA buffer (Sigma), and the protein concentrations were determined by BCA assay (Thermo Scientific Pierce). Lysates were solubilized in 6×SDS PAGE buffer and […] of protein was loaded into 6-15% SDS PAGE gels, pheresed, and then transferred onto […] PVDF membrane (Millipore). Primary antibodies were applied at a dilution of 1:1000. Anti-Bcl-2, -Bax, -Mcl-1, -Bcl-XL, -Cyclin A and -Cyclin D1 antibodies were purchased from Cell Signaling Technologies. Anti-total acetylated histone and -ac-H3K27 were purchased from Santa Cruz Biotechnologies. Anti-actin and -CREB antibodies were purchased from upstate. Secondary antibodies were used at a 1:2500 dilution and purchased from Thermo Scientific/Pierce. WesternBright ECL was used for image acquisition on Image Lab software (Bio-Rad).

In series [2] the test system is human AML patient sample cells (#186). Put plainly: Primary AML patient sample (#186) xenograft in NSG mice. Format: in vivo. As to conditions: 2.3 mg/kg IV once daily. As for the experimental part: For AML xenograft mouse experiments, HL-60 cells (2×10^6) expressing firefly luciferase and GFP, or cryopreserved human AML patient cells (5×10^6), were injected through the tail vein into NOD.Cg-prkdc^scid Il2rg^tm1WjlSzJ (NSG) mice. Mice were then Compound A or 10% DMSO, injected intravenously by tail vein daily, until death or an endpoint was reached (moribundity) in accordance with the animal care institutional guidelines. All mouse experiments were subject to institutional approval by Stanford University Institutional Animal Care and Use Committee. Leukemia progression in mice at the indicated time points was monitored using an in vivo IVIS 100 bioluminescenceoptical imaging system (Xenogen Corporation). D-Luciferin (Promega) dissolved in sterile phosphate-buffered saline was injected intraperitoneally at a dose of […], 15 minutes before measuring the luminescent signal. General anesthesia was induced with […] and continued during the procedure using a nose cone. […]
To examine the efficacy of CREB inhibition in an in vivo model of AML, 4-6 week old NOD.Cg-Prkdc^scid Il2rg^tm1WjlSzJ (NSG) mice were tail-vein injected with HL-60 AML cells (2×10^6) expressing Firefly luciferase and GFP. […] The efficacy of Compound A was also assessed in a mouse xenograft model using primary AML cell sample (patient sample #186), using similar methods.
(In general: A xenograft is tissue or cells of one species grown in another, often human tumour cells in immunodeficient mice.)

In a further series the test system is HL-60 cells. Put plainly: HL-60 viability, combination of Compound A with kinase inhibitors. Format: cell-based, human. As to conditions: 48 hours.

A word on the IC50: it is the midpoint of a concentration-inhibition curve. As a reminder, the viability is a read-out of living cells in per cent, often relative to untreated cells. In the case of `N#Cc1ccc(NC(=O)c2cc3ccccc3cc2O)cc1` [Compound A, N-(4-cyanophenyl)-3-hydroxy-2-naphthamide], in series [1], the “decreased viable cell count” value is listed as “a range of responsiveness”. Also, the IC50 in the series with AML cell lines fell in the range of 0.87 to 2.3 µM. In the series with CREB phosphorylation (HL-60 cells serum-starved then stimulated with serum, 48 hours), the “CREB phosphorylation in the presence of serum” value is “CREB phosphorylation decreases”. In addition, the CREB phosphorylation result with CREB phosphorylation (HL-60 cells, 24 hours) is listed as “increase in CREB phosphorylation”. Moreover, the toxicity entry in series [2] (80 days) was “None of the mice treated for 80 days experienced any toxicity”. Besides, the “survival (Kaplan-Meier)” value in series [2] (versus DMSO-treated mice) is reported as “significant survival advantage”. In addition, the results for the viability in the series on HL-60 cells (Compound A alone), with HL-60 cells (Compound A combined with ERK inhibitor) and in the series on HL-60 cells (Compound A combined with RSK inhibitor) were 87.4±7.3%, 55.3±3.4% and 49.5±2.3%, respectively.

These data come from patent publication US20210205292A1, “INHIBITORS OF CREB-CBP INTERACTION FOR TREATMENT OF LEUKEMIA” (The Board of Trustees of the Leland Stanford Junior …, priority 2016, published 2021).
